The values that follow come from patent US20250027072A1, “METHODS AND CO[…] TO ENGINEERED CANNABINOID RECEPTORS” (priority 2021, published 2025).

Assay [1] deals with human Cannabinoid Receptor 1 (CB1R). The assay is classed as cell-based.
The target of assay [2] is T1, human Cannabinoid Receptor 1 (CB1R) (Homo sapiens, UniProt P21554).
T1 construct: syn-prepro (synthetic yeast pre-pro secretion leader) (N); expressed in transfected cells; host or cells: Saccharomyces cerevisiae BY4741-derived strain (ste2, sst2, far1 knocked out); Gpa1-Gαi3 chimera
The assay is classed as cell-based.

Assay [3] deals with human cannabinoid receptor type II (CB2R). Description: cell-based. The class given is cell-based. On the procedure: (§1) To efficiently transduce signals from the human machinery to the yeast pathway, the yeast 5 C-terminal residues of the G-alpha gene GPA1 were replaced with the sequence of the Gαi3 human G-alpha variant as previously described (Brown et al. 2000). ZsGreen1 was used to report on the activity of the pathway, integrating it into the genome in place of the pheromone-inducible Fig1 gene (FIG. 14A).
(§2) Yeast colonies were picked and grown overnight to saturation in pH 5.8 SD-His media in a 2.2 mL deep well plate (Axygen) grown in a plate-shaking incubator (30° C., 1000 rpm, 3 mm orbital). In the morning cultures were diluted 1:10 or 1:25 in SD-His media buffered to pH 7.1 with 100 mM MOPSO (unless otherwise specified). Ligands were added to the culture and incubated with shaking for 8 hours. Cells were then washed three times with ice-cold Tris buffer (pH 7) and diluted 1:20 for cytometry. All cytometry was performed on a Sony SA3800 spectral analyzer. Each sample was tested for 10,000 events, and read at a rate of 1,000 events per second. All assays as reported here were filtered only for singlet populations.

In assay [4] the target is T2, human cannabinoid receptor type II (CB2R) (Homo sapiens, UniProt P34972). Put plainly: cell-based. The assay is classed as cell-based. Details: Normalized Activity at 1 μM, CB2R; other: PINACA compounds, 1 μM; Normalized Activity at 1 μm, CB2R; other: 5-fluoro PB-22 isomers, 1 μm; other: MFα-CB2R, ST03 sterol strain, pH 5.8; activity against CB2R; other: at 10 nM, dose response; preference at CB2R of ADB-BINACA over AB-PINACA; signaling at CB2R in synthetic cannabinoid screen; fused on or other part: yeast mating factor alpha (MFα) pre-pro leader fused at the N-terminus as a trafficking signal. To be noted: for EC50: MFα-CB2R, ST03 sterol strain, pH 5.8, read-out: EC50 at CB2R, dose response. The procedure: as §1, §2

A further assay deals with T3, CB1R (Homo sapiens, UniProt P21554).
T3 construct: host or cells: mouse AtT-20 cells
The note with it: Banister et al., 2015; read-out: EC50 with CB1R in mouse AtT-20 neuroblastoma cells; cited from earlier work.

Assay [5] has as its target T2, human cannabinoid receptor type II (CB2R). Put plainly: cell-based. The class given is cell-based. To be noted: EC50, dose response with CB2R, WT CB2R (no leader). Details: MFα (mating factor alpha) pre-pro leader (N); expressed in transfected cells; host or cells: Saccharomyces cerevisiae BY4741-derived biosensor strain (Gpa1-Gαi3 chimera, ZsGreen reporter); sterol-modified strain ST03 for the screens, pH 5.8. The procedure:
as §1, §2

The target is the same in assay [6]. Description: cell-based. The assay is classed as cell-based. The note with it: Ste2 signal sequence CB2R; read-out: EC50, dose response with CB2R. The procedure:
as §1, §2

Assay [7] shares this target. Description: cell-based. The class given is cell-based. The note with it: EC50, dose response with CB2R, MF alpha leader CB2R. Also noted: other: MF alpha leader CB2R; "MF-α=mating factor alpha pre-pro"; fused on or other part: yeast mating factor alpha (MFα) pre-pro leader fused at the N-terminus. On the procedure: as §1, §2
The target is the same in assay [8]. Description: cell-based. The class given is cell-based. Also noted: other: syn-prepro CB2R; "Syn=synthetic pre-pro"; fused on or other part: synthetic yeast pre-pro secretion leader (syn-prepro) fused at the N-terminus. The note with it: EC50, dose response with CB2R, syn-prepro CB2R. On the procedure: as §1, §2

Values joined by “and” are separate entries in the source; they are usually repeats but may differ in a detail not shown here. Equal entries are not always repeated. Where two headings read alike, the source gives them in different places.

T2 sequence (P34972 whole entry, the tested form may be a part): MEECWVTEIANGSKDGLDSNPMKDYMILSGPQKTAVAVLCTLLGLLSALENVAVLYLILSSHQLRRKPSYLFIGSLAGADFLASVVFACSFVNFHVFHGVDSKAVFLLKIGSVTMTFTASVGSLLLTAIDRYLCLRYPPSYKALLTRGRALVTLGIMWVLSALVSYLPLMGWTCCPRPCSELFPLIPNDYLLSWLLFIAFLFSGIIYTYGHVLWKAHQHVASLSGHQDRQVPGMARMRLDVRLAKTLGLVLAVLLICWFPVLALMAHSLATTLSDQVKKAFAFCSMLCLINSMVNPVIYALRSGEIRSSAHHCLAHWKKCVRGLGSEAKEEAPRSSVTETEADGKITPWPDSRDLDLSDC
T3 sequence (P21554 whole entry): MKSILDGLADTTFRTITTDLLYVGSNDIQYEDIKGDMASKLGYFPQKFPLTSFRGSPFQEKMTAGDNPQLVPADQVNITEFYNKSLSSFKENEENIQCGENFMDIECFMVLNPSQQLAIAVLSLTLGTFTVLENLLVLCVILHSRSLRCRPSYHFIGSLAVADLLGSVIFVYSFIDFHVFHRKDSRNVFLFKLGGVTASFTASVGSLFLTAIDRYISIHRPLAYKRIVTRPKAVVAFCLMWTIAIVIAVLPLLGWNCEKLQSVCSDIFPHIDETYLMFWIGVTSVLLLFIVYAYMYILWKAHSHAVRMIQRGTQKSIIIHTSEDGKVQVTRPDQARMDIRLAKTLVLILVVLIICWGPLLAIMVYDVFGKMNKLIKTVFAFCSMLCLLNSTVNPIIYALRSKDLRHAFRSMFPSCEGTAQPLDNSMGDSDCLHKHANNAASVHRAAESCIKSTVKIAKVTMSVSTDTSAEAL

Regarding `CCCCC/C=C\C/C=C\C/C=C\C/C=C\CCCC(=O)NCCCl` [ACEA], the “drop in sensitivity of Δ89 constructs compared to full-length counterparts” value in assay [1] is 3.6-3.8 fold and 3.8 fold. Besides, the “EC50, dose response with CB1R” value in [2] is reported as “low μM range”.

For the compound `O=C(Oc1ccnc2ccccc12)c1cn(CCCCCF)c2ccccc12` [5-fluoro PB-22 4-hydroxyquinoline isomer], the “factor by which CB1 is favored over CB2” value in assay [1] is recorded as about 3.

The EC50 is the midpoint of the concentration-response curve. Take `O=C(Oc1cccc2cnccc12)c1cn(CCCCCF)c2ccccc12` [5-fluoro PB-22 5-hydroxyisoquinoline isomer]: the “fold by which CB2 is favored over CB1” value in assay [3] (normalized activity at 1 μM, Table 3) was “roughly 2 fold”. Further, in assay [4], the EC50 was 216 nM.

Consider `CCCCCn1nc(C(=O)N[C@H](C(N)=O)C(C)C)c2ccccc21` [AB-PINACA], for which the EC50 is 1.2 nM on CB1R; 1.2 nM and 1.21 nM in assay [2] (syn-prepro-Δ89-CB1R, wild type ergosterol strain, read-out: EC50 at CB1R, synthetic cannabinoid dose response); 107 nM in assay [4]. Moreover, in assay [2] (compounds at 10 nM, 100 μM ACEA control), the “relative fluorescence of the ACEA positive control at CB1R” value is “strong signaling”. Moreover, the “signaling at CB1R in synthetic cannabinoid screen relative to 100 μM ACEA positive control” value in assay [2] (compounds at 1 μM) is reported as “maximal fluorescence”. In addition, the “EC50 at CB1R, synthetic cannabinoid dose response” value in assay [2] (syn-prepro-Δ89-CB1R, wild type ergosterol strain) was “low nanomolar range”. Besides, the “signaling at CB2R in synthetic cannabinoid screen” value in [4] (compounds at 1 μM) is recorded as “high activity”.

With `CC1(C)C(C(=O)c2cn(CC3CCOCC3)c3ccccc23)C1(C)C` [A-834735], the “receptor bias CB2R versus CB1R” value in assay [3] (dual biosensor screen at 1 μM) is recorded as “CB2R-biased”. Further, the EC50 in assay [4] turned out to be 7.42 nM.

Turning to `CCCCC/C=C\C/C=C\C/C=C\C/C=C\CCCC(=O)OC(CO)CO` [2-AG, 2-arachidonoyl glycerol], the EC50 in [5] is 70 nM; in assay [6] it was 150 nM; in [7], 160 nM; in assay [8], 1540 nM.
